Measurements as given in PubChem BioAssay AID248 (DTP/NCI, 2004).
“And” between values parts separate entries of the source, which are not always exact repeats. Equal entries are not always repeated. Inconclusive results and toxic doses are left out. Cut-off read from the data, not from the text of the source: active = T/C of 150% or more; inactive = T/C below 125%.

Test system: L1210 leukemia ip in BDF1 mice, survival T/C
Assay: NCI In Vivo Anticancer Drug Screen. Data for tumor model L1210 Leukemia (intraperitoneal) in B6D2F1 (BDF1) mice
Settings: endpoint: mean survival time, higher = longer survival
In short: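 Value reflects the ratio of survival in compound-treated mice to survival in vehicle-treated controls, with both groups carrying the same transplanted tumor.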

[1] = dose: 50.0 mg/kg/injection, schedule: Q01DX009 (ip), vehicle: saline with Tween-80
[2] = dose: 100.0 mg/kg/injection, schedule: Q01DX009 (ip), vehicle: saline with Tween-80
[3] = dose: 100.0 mg/kg/injection, schedule: Q04DX003 (ip), vehicle: saline with Tween-80
[4] = dose: 200.0 mg/kg/injection, schedule: Q04DX003 (ip), vehicle: saline with Tween-80
[5] = dose: 100.0 mg/kg/injection, schedule: Q01DX001 (ip), vehicle: carboxymethylcellulose (CMC)
[6] = dose: 200.0 mg/kg/injection, schedule: Q01DX001 (ip), vehicle: carboxymethylcellulose (CMC)
[7] = dose: 400.0 mg/kg/injection, schedule: Q01DX001 (ip), vehicle: carboxymethylcellulose (CMC)
[8] = dose: 50.0 mg/kg/injection, schedule: Q01DX009 (ip), vehicle: Klucel (hydroxypropylcellulose) (HPC)
[9] = dose: 100.0 mg/kg/injection, schedule: Q01DX009 (ip), vehicle: Klucel (hydroxypropylcellulose) (HPC)
[10] = dose: 200.0 mg/kg/injection, schedule: Q01DX009 (ip), vehicle: Klucel (hydroxypropylcellulose) (HPC)
[11] = dose: 100.0 mg/kg/injection, schedule: Q04DX003 (ip), vehicle: Klucel (hydroxypropylcellulose) (HPC)
[12] = dose: 200.0 mg/kg/injection, schedule: Q04DX003 (ip), vehicle: Klucel (hydroxypropylcellulose) (HPC)
[13] = dose: 400.0 mg/kg/injection, schedule: Q04DX003 (ip), vehicle: Klucel (hydroxypropylcellulose) (HPC)

Measured: T/C

CCOC(=O)C1(C)CCCCC1=O (stereo not given)
inactive: dose: 100.0 mg/kg/injection, schedule: Q01DX009 (ip), vehicle: saline sonified 110 % of control | dose: 200.0 mg/kg/injection, schedule: Q01DX009 (ip), vehicle: saline sonified 96 % of control | dose: 400.0 mg/kg/injection, schedule: Q01DX009 (ip), vehicle: saline sonified 105 % of control

Nc1ccn(CC(=O)c2cccs2)c(=O)n1
inactive: dose: 25.0 mg/kg/injection, schedule: Q01DX009 (ip), vehicle: saline with Tween-80 93 % of control | [1] 98 % of control | [2] 100 % of control and 103 % of control | [3] 94 % of control | [4] 110 % of control

OC1CCCCC1c1ccccc1 (stereo not given)
inactive: [1] 87 % of control | [2] 87 % of control | dose: 200.0 mg/kg/injection, schedule: Q01DX009 (ip), vehicle: saline with Tween-80 97 % of control

c1ccc2c[n+]3cc4ccccc4cc3cc2c1
inactive: dose: 6.25 mg/kg/injection, schedule: Q01DX009 (ip), vehicle: saline 101 % of control | dose: 12.5 mg/kg/injection, schedule: Q01DX009 (ip), vehicle: saline 104 % of control | dose: 25.0 mg/kg/injection, schedule: Q01DX009 (ip), vehicle: saline 104 % of control | dose: 35.0 mg/kg/injection, schedule: Q01DX009 (ip), vehicle: saline 95 % of control

CCCCCCN1CC1
inactive: dose: 15.0 mg/kg/injection, schedule: Q01DX001 (ip), vehicle: saline 102 % of control | dose: 30.0 mg/kg/injection, schedule: Q01DX001 (ip), vehicle: saline 98 % of control

O=C(O)c1c(O)cc(O)cc1O
inactive: [3] 95 % of control | [4] 95 % of control

O=c1[nH]ncc2c1[nH]c1cccc(Cl)c12
inactive: dose: 200.0 mg/kg/injection, schedule: Q04DX003 (ip), vehicle: carboxymethylcellulose (CMC) 88 % of control | dose: 400.0 mg/kg/injection, schedule: Q04DX003 (ip), vehicle: carboxymethylcellulose (CMC) 92 % of control

COc1ccc(NC(=O)C(Cl)Cl)cc1NC(C)=O
inactive: [5] 96 % of control | [6] 108 % of control | [7] 91 % of control

O=P(NC12CC3CC(CC(C3)C1)C2)(NC12CC3CC(CC(C3)C1)C2)N(CCCl)CCCl
inactive: [8] 112 % of control | dose: 100.0 mg/kg/injection, schedule: Q01DX001 (ip), vehicle: Klucel (hydroxypropylcellulose) (HPC) 105 % of control | [9] 104 % of control | dose: 200.0 mg/kg/injection, schedule: Q01DX001 (ip), vehicle: Klucel (hydroxypropylcellulose) (HPC) 94 % of control | [10] 89 % of control | dose: 400.0 mg/kg/injection, schedule: Q01DX001 (ip), vehicle: Klucel (hydroxypropylcellulose) (HPC) 98 % of control

Nc1nc(Cl)c2[nH]cnc2n1
active: dose: 6.0 mg/kg/injection, schedule: Q01DX009 (ip), vehicle: saline with Tween-80 150 % of control | dose: 30.0 mg/kg/injection, schedule: Q04DX003 (ip), vehicle: saline with Tween-80 195 % of control
inactive: dose: 0.25 mg/kg/injection, schedule: Q01DX009 (ip), vehicle: saline with Tween-80 110 % of control | dose: 0.5 mg/kg/injection, schedule: Q01DX009 (ip), vehicle: saline with Tween-80 112 % of control | dose: 1.0 mg/kg/injection, schedule: Q01DX009 (ip), vehicle: saline with Tween-80 117 % of control | dose: 8.8 mg/kg/injection, schedule: Q04DX003 (ip), vehicle: saline with Tween-80 112 % of control | dose: 13.0 mg/kg/injection, schedule: Q01DX009 (ip), vehicle: Klucel (hydroxypropylcellulose) (HPC) 99 % of control | dose: 20.0 mg/kg/injection, schedule: Q01DX009 (ip), vehicle: Klucel (hydroxypropylcellulose) (HPC) 101 % of control | dose: 30.0 mg/kg/injection, schedule: Q01DX009 (ip), vehicle: Klucel (hydroxypropylcellulose) (HPC) 101 % of control | dose: 37.5 mg/kg/injection, schedule: Q04DX009 (ip), vehicle: Klucel (hydroxypropylcellulose) (HPC) 94 % of control | dose: 44.0 mg/kg/injection, schedule: Q01DX009 (ip), vehicle: Klucel (hydroxypropylcellulose) (HPC) 100 % of control | [1] 107 % of control | dose: 66.0 mg/kg/injection, schedule: Q01DX009 (ip), vehicle: Klucel (hydroxypropylcellulose) (HPC) 104 % of control | dose: 75.0 mg/kg/injection, schedule: Q04DX009 (ip), vehicle: Klucel (hydroxypropylcellulose) (HPC) 104 % of control | [2] 124 % of control | dose: 150.0 mg/kg/injection, schedule: Q04DX009 (ip), vehicle: Klucel (hydroxypropylcellulose) (HPC) 97 % of control

O=C1CCCCCC/C(=N/O)CCCO1
inactive: dose: 100.0 mg/kg/injection, schedule: Q01DX001 (ip), vehicle: saline with Tween-80 94 % of control | dose: 200.0 mg/kg/injection, schedule: Q01DX001 (ip), vehicle: saline with Tween-80 97 % of control | dose: 400.0 mg/kg/injection, schedule: Q01DX001 (ip), vehicle: saline with Tween-80 97 % of control

NC(N)=N/N=C(\C=N\N=C(N)N)c1ccc(-c2ccc(C(/C=N/N=C(N)N)=N\N=C(N)N)cc2)cc1
inactive: dose: 15.0 mg/kg/injection, schedule: Q01DX Z (oral), vehicle: saline 102 % of control | dose: 30.0 mg/kg/injection, schedule: Q01DX Z (oral), vehicle: saline 96 % of control | dose: 60.0 mg/kg/injection, schedule: Q01DX Z (oral), vehicle: saline 98 % of control | dose: 120.0 mg/kg/injection, schedule: Q01DX Z (oral), vehicle: saline 100 % of control

CC(=O)c1ccc2c3ccccc3n(CCCN3CCC(O)CC3)c2c1
inactive: dose: 100.0 mg/kg/injection, schedule: Q04DX002 (ip), vehicle: saline 95 % of control | dose: 200.0 mg/kg/injection, schedule: Q04DX002 (ip), vehicle: saline 113 % of control

CCCc1cc2c3c(c(=O)oc2cc1OCCN1CCCC1)CCCC3
inactive: dose: 37.5 mg/kg/injection, schedule: Q01DX001 (ip), vehicle: saline with Tween-80 92 % of control | dose: 37.5 mg/kg/injection, schedule: Q04DX003 (ip), vehicle: saline with Tween-80 96 % of control | dose: 75.0 mg/kg/injection, schedule: Q01DX001 (ip), vehicle: saline with Tween-80 94 % of control | dose: 75.0 mg/kg/injection, schedule: Q04DX003 (ip), vehicle: saline with Tween-80 100 % of control | dose: 150.0 mg/kg/injection, schedule: Q01DX001 (ip), vehicle: saline with Tween-80 100 % of control | dose: 150.0 mg/kg/injection, schedule: Q04DX003 (ip), vehicle: saline with Tween-80 98 % of control

CCOC(=O)Nc1nn[nH]n1
inactive: dose: 50.0 mg/kg/injection, schedule: Q01DX001 (ip), vehicle: carboxymethylcellulose (CMC) 92 % of control | [5] 97 % of control | [6] 101 % of control | [7] 90 % of control

Nc1nc2nc(N=Nc3ccc(N=Nc4nc5nc(N)[nH]c(=O)c5[nH]4)cc3)[nH]c2c(=O)[nH]1
inactive: [11] 91 % of control | [12] 99 % of control | [13] 88 % of control

O=C(O)c1ccccc1C(=O)Nc1ccc([N+](=O)[O-])cc1Cl
inactive: [8] 94 % of control | [9] 95 % of control | [11] 97 % of control | [10] 89 % of control | [12] 97 % of control

COc1cc(C(=O)O)c(Br)cc1C
inactive: [9] 111 % of control | [11] 103 % of control | [10] 103 % of control | [12] 93 % of control | dose: 400.0 mg/kg/injection, schedule: Q01DX009 (ip), vehicle: Klucel (hydroxypropylcellulose) (HPC) 98 % of control | [13] 95 % of control

CCOC(=O)C(C)C1(c2ccccc2)OC(=O)c2ccccc21 (stereo not given)
inactive: dose: 100.0 mg/kg/injection, schedule: Q04DX002 (ip), vehicle: saline with Tween-80 108 % of control | dose: 200.0 mg/kg/injection, schedule: Q04DX002 (ip), vehicle: saline with Tween-80 112 % of control | dose: 400.0 mg/kg/injection, schedule: Q04DX002 (ip), vehicle: saline with Tween-80 97 % of control
